US7815918B2, “Polypeptides and immunogenic conjugates capable of inducing antibodies against pathogens, and uses thereof” (priority 2003, dated 2010)
Entries after “also recorded” stand apart in the source; their conditions may differ. Ends that are not written are not given here.

Legend:
mAb 4F11(G1) [1] = assay: Western blot of purified recombinant thioredoxin fusion proteins probed with mAb 4F11; assay type: binding, mouse; conditions: for reactivity with mAb 4F11 in Western blot: purified thioredoxin fusion protein separated by SDS-PAGE
Description: MAb 4F11 was produced as described (Lee et al., “Molecular Characterization of KEX1, a Kexin-Like Protease in Mouse Pneumocystis carinii,” Gene 242:141-150 (2000), which is hereby incorporated by reference in its entirety). For colony immunoscreens and P. carinii immunofluorescence assays (IFAs), mAb 4F11 IgM ascites fluid was used at a 1:5000 dilution. For enzyme-linked immunosorbent assays (ELISA) and Western blots of purified recombinant proteins an IgG1 switch-variant of mAb 4F11(G1) (Gigliotti et al., “Passive Intranasal Monoclonal Antibody Prophylaxis Against Murine Pneumocystis carinii Pneumonia,” Infect. Immun. 70:1069-1074 (2002), which is hereby incorporated by reference in its entirety) was prepared by saturated ammonium sulfate precipitation of tissue culture supernatant and used at the indicated dilutions. MAb 2B5 is an IgG1 that recognizes a mouse P. carinii gpA (Gigliotti et al., “Antibody-Mediated Shift in the Profile of Glycoprotein A Phenotypes Observed in a Mouse Model of Pneumocystis carinii Pneumonia,” Infect. Immun. 64:1892-1899 (1996), which is hereby incorporated by reference in its entirety) and was used as a negative control in S. pneumoniae immunoblots and IFAs. MAb 1C7 is an anti-mouse P. carinii IgM used as an isotype control in IFAs against P. carinii derived from different hosts. Pooled hyperimmune sera against mouse P. carinii was obtained as described previously (Gigliotti et al., “Development of Murine Monoclonal Antibodies to Pneumocystis carinii,” J. Infect. Dis. 154:315-322 (1986), which is hereby incorporated by reference in its entirety).
To confirm reactivity of E. coli pSCREEN transformants with mAb 4F11, 5 mL overnight cultures were pelleted and resuspended in 200 μL of 1× Laemmli SDS running/sample buffer+5% β-mercaptoethanol, and 20 μL samples were separated on NuPAGE Bis-Tris 4-12% gels (Invitrogen) by SDS-PAGE. S. pneumoniae from blood agar plates was grown in 5 mL THY overnight, 1 mL aliquots were pelleted, resuspended in 200 μL 1× sample buffer, and 20 μL were resolved by SDS-PAGE. Purified recombinant protein was suspended in sample buffer in equal concentrations and separated as described for cell lysates. Western blots were performed as previously described (Lee et al., “Molecular Characterization of KEX1, a Kexin-Like Protease in Mouse Pneumocystis carinii,” Gene 242:141-150 (2000), which is hereby incorporated by reference in its entirety).
Production of 6×His-tagged thioredoxin fusion proteins using the pBADTHIO expression system in E. coli was performed following the manufacturer's instructions. Briefly, overnight cultures were diluted 1:40 in fresh LB+100 μg/mL ampicillin and grown at 37° C. with shaking to absorbance at 600 nm of approximately 0.5. For fusion protein induction, arabinose was added to a final concentration of 0.02% and cultures were grown an additional 5 hr at 37° C. with shaking. Cells were pelleted by centrifugation at 1000×g then resuspended in ⅕ original culture volume with lysis buffer (50 mM sodium phosphate, 6 M guanidine-HCl, 300 mM NaCl) and vortexed vigorously. Debris was pelleted by centrifugation at 10,000×g at 4° C. The supernatants were passed over a TALON affinity resin column (BD Biosciences, Palo Alto, Calif.) that had been pre-equilibrated with lysis buffer. The columns were then washed twice with 10 mL 50 mM sodium phosphate, 300 mM NaCl. The fusion proteins were eluted with 2 mL buffer containing 50 mM sodium phosphate, 300 mM NaCl, and 150 mM imidazole. The eluted protein was dialyzed overnight against PBS at 4° C. and concentrated by vacuum centrifugation. Protein concentrations were determined using a BCA microwell assay kit (Pierce, Rockford, Ill.).

mAb 4F11(G1) [2] = assay: ELISA of epitope-thioredoxin fusion constructs using mAb 4F11(G1); assay type: binding, mouse
Description: (§1) Purified recombinant protein at a concentration of 10 μg/mL in 50 mM carbonate-bicarbonate buffer pH 9.5+0.1% SDS was used to coat Costar ELISA plates (Corning Incorporated, Corning, N.Y.) 16-20 hr at 37° C. The plates were blocked with 3% BSA-TBST for 1 hr at 4° C. Primary antibody was added in two-fold serial dilutions in 3% BSA-TBST and incubated at 4° C. for 1 hr. Goat anti-mouse IgG+IgM-alkaline phosphatase conjugate secondary antibody was added at 1:5000 dilution in BSA-TBST for one hr at 4° C. Blue Phos substrate (KPL, Gaithersburg Md.) was added for 30 min, color development was stopped with 2.5% EDTA, and absorbance was read at 655 nm using a Benchmark microplate reader (Bio-Rad).
Experimental ELISA results were statistically compared to the control values using a two-tailed Student's t test. Results were considered significant if p≦0.05.

[3] = target: 4F11(G1) binding against plate-bound sonicated mouse P. carinii; assay: Competitive (inhibition) ELISA: synthetic peptides as soluble competitors for 4F11(G1) binding to plate-bound sonicated mouse P. carinii
Description: FIGS. 5A-F show the analysis of purified recombinant epitope-thioredoxin fusion proteins. FIG. 5A is a gel stained with Coomassie Blue. FIG. 5B is a Western blot using mAb 4F11(G1). FIG. 5C is a Western blot using anti-V5 epitope tag mAb. FIG. 5D is an ELISA of epitope-thioredoxin fusion constructs using mAb 4F11(G1). Results are plotted as the mean±standard error of triplicate experiments. […] Results are plotted as the mean±standard deviation of triplicate experiments. […] Results are plotted as the mean±standard deviation of triplicate experiments. The dashed line indicates the mean absorbance at 655 nm with no inhibitor and a 4F11(G1) dilution of 1:3200.
(§2) Mouse P. carinii Kexin 777-787 (RPAPPKPTPQP, SEQ ID NO: 56) and Kexin 131-142 (SGDTGNVNSGEK, SEQ ID NO: 57) peptides were purchased from Alpha Diagnostics (San Antonio, Tex.). ELISA experiments using the synthetic peptides were performed as described above, using 10 μg peptide/mL in carbonate-bicarbonate buffer to coat the plates. For competitive ELISA studies peptides were incubated at three fold dilutions with a starting concentration of 100 μg/mL for 2 hr with a 1:3200 dilution of mAb 4F11 at 4° C. to reach equilibrium. Mouse P. carinii sonicates in carbonate-bicarbonate buffer were used to coat ELISA plates at the equivalence of 4×10^4 cysts per well overnight at 4° C. The peptide-antibody mixtures, or antibody alone at 1:3200 dilution, were used as the primary antibody in the ELISA following the above protocol.

mAb 4F11(G1) [4] = assay: ELISA of synthetic P. carinii peptides using mAb 4F11(G1); assay type: binding, mouse; conditions: 10 μg peptide/mL coat, no fusion partner
Description: as §1
as §2, with “The peptide-antibody mixtures, or antibody alone at 1:3200 dilution, were used as the primary antibody in the ELISA following the above protocol.” left out

[5] = test system: hyperimmune sera from mice immunized with whole P. carinii; assay: Western blot of A12 fusion protein with hyperimmune sera from P. carinii-immunized mice; assay type: binding, mouse
Description: MAb 4F11 was produced as described (Lee et al., “Molecular Characterization of KEX1, a Kexin-Like Protease in Mouse Pneumocystis carinii,” Gene 242:141-150 (2000), which is hereby incorporated by reference in its entirety). For colony immunoscreens and P. carinii immunofluorescence assays (IFAs), mAb 4F11 IgM ascites fluid was used at a 1:5000 dilution. For enzyme-linked immunosorbent assays (ELISA) and Western blots of purified recombinant proteins an IgG1 switch-variant of mAb 4F11(G1) (Gigliotti et al., “Passive Intranasal Monoclonal Antibody Prophylaxis Against Murine Pneumocystis carinii Pneumonia,” Infect. Immun. 70:1069-1074 (2002), which is hereby incorporated by reference in its entirety) was prepared by saturated ammonium sulfate precipitation of tissue culture supernatant and used at the indicated dilutions. MAb 2B5 is an IgG1 that recognizes a mouse P. carinii gpA (Gigliotti et al., “Antibody-Mediated Shift in the Profile of Glycoprotein A Phenotypes Observed in a Mouse Model of Pneumocystis carinii Pneumonia,” Infect. Immun. 64:1892-1899 (1996), which is hereby incorporated by reference in its entirety) and was used as a negative control in S. pneumoniae immunoblots and IFAs. MAb 1C7 is an anti-mouse P. carinii IgM used as an isotype control in IFAs against P. carinii derived from different hosts. […]

[6] = at lower mAb 4F11 dilutions, plate coated 10 μg/mL

Molecule: E46PRPQPTS53 (EPRPQPTS; not fully specified; printed as E46PRPQPTS53) [A1246-53]
- reactivity with mAb 4F11 in Western blot (mAb 4F11(G1) [1]): do not react with mAb 4F11

Molecule: K70PRPQPTP77 (KPRPQPTP; not fully specified; printed as K70PRPQPTP77) [A1270-77]
- reactivity with mAb 4F11 in Western blot (mAb 4F11(G1) [1]): positive reactivity

Molecule: K865PAPKPAP872 (KPAPKPAP; not fully specified; printed as K865PAPKPAP872) [Kexin865-872]
- reactivity with mAb 4F11 in Western blot (mAb 4F11(G1) [1]): positive reactivity

Molecule: R777PAPPKPTPQP787 [Kexin777-787]
- binding with mAb 4F11 compared with Kexin856-872, based on size and intensity of the Western blot band (mAb 4F11(G1) [1]; 1 μg purified protein): enhanced binding
- ELISA reactivity with mAb 4F11 (mAb 4F11(G1) [2]; at higher mAb 4F11 dilutions): greater reactivity with mAb 4F11 than did the original 17mer epitope
- ELISA reactivity with mAb 4F11 (mAb 4F11(G1) [2]; [6]): highest reactivity
- 50% inhibition of binding of mAb 4F11 to native P. carinii antigens ([3]; 4F11(G1) diluted 1:3200): 150 ng/mL
- concentration that completely blocks binding of mAb 4F11 to native P. carinii antigens ([3]; 4F11(G1) diluted 1:3200): 1 µg/mL

Molecule: thioredoxin fusion partner: thioredoxin fusion partner alone, negative control for the fusion constructs [reference compound]
- reactivity with mAb 4F11 in Western blot (mAb 4F11(G1) [1]): does not react with mAb 4F11; also recorded: did not react with mAb 4F11
- reactivity with mAb 4F11 in Western blot (mAb 4F11(G1) [1]; listed as fusion partner): did not react with mAb 4F11

Molecule: K62PRPQPTSKPRPQPTP77 (KPRPQPTSKPRPQPTP; not fully specified; printed as K62PRPQPTSKPRPQPTP77) [A1262-77]
- ELISA reactivity to mAb 4F11 (mAb 4F11(G1) [2]; at 1:800 or greater dilution): only background reactivity
- ELISA reactivity with mAb 4F11 (mAb 4F11(G1) [2]; [6]): lower reactivity, but significantly higher than the thioredoxin fusion partner alone

Molecule: K856PAPKPTP863 (KPAPKPTP; not fully specified; printed as K856PAPKPTP863) [Kexin856-863]
- reactivity with mAb 4F11 in Western blot (mAb 4F11(G1) [1]): positive reactivity

Molecule: E54PQPQPAP61 (EPQPQPAP; not fully specified; printed as E54PQPQPAP61) [A1254-61]
- reactivity with mAb 4F11 in Western blot (mAb 4F11(G1) [1]): do not react with mAb 4F11

Molecule: RPAPPKPTPQP [Kex777-787]
- ELISA reactivity of synthetic peptide to mAb 4F11 (mAb 4F11(G1) [4]): high reactivity

Molecule: SGDTGNVNSGEK [Kex131-142, reference compound]
- ELISA reactivity of synthetic peptide to mAb 4F11 (mAb 4F11(G1) [4]): did not react
- inhibition of binding of mAb 4F11 to native P. carinii antigens ([3]; at the highest concentration tested): no inhibition

Molecule: K856PAPKPTPPKPAPKPAP872 (KPAPKPTPPKPAPKPAP; not fully specified; printed as K856PAPKPTPPKPAPKPAP872) [Kexin856-872]
- ELISA reactivity with mAb 4F11 (mAb 4F11(G1) [2]; [6]): highest reactivity

B1: URSP2 PspA: recombinant thioredoxin fusion protein containing the α-helical domain, clade defining region and proline-rich repeat region of URSP2 PspA (protein)
chain: EKELKEIDESDSEDYIKEGLRAPLQSKLDAKKAKLSKLEELSDKIDELDAEIAKLEKDVEDFKNSDGEQAEQYLVAAKKDLDAKKAELENTEADLKKAVDEPETPAPAPKPAPAPAPTPEAPAPAPKPAPAPKPAPAPAPTPEAPAPAPKPAPAPKPAPAPAPTPEAPAPAPKPAPAPRPAPAPKPAPDPKP
modifications: left off: large carriers
- reactivity with mAb 4F11 in Western blot (mAb 4F11(G1) [1]): shown to react with mAb 4F11

B2: A121-142: truncated A12 molecule, residues 1-142 of SEQ ID NO: 5, expressed as thioredoxin fusion protein (protein)
chain: TNISEPALPDKDPQPTSSPQPKPRPRPRPQPQPHPHPKPQPQPTPEPQPQPAPEPRPQPTSKPRPQPTSKPRPQPTPEPRPLPVPGPGPLPVPGPRPQPQPQPQPQPQPQPQPQPQPQPQPQPQPQPQPQPKPQPPSQSTSE
modifications: thioredoxin fusion partner
- reactivity with mAb 4F11 in Western blot (mAb 4F11(G1) [1]): reacted with mAb 4F11

B3: A121-82: truncated A12 molecule, residues 1-82 of SEQ ID NO: 5, expressed as thioredoxin fusion protein (protein)
chain: TNISEPALPDKDPQPTSSPQPKPRPRPRPQPQPHPHPKPQPQPTPEPQPQPAPEPRPQPTSKPRPQPTSKPRPQPTPEPRPL
modifications: thioredoxin fusion partner
- reactivity with mAb 4F11 in Western blot (mAb 4F11(G1) [1]): reacted with mAb 4F11
- reactivity with hyperimmune sera in Western blot [5]: reacted with hyperimmune sera
